Structures can show the parent of a compound that is named as a salt.
Experiments:
PKD1 [1] = target: T1, PKD1 (Homo sapiens, UniProt Q15139); test: IMAP-based PKD Fluorescence Polarization (FP) assay, automated HTS format; type: biochemical; conditions: mean ± SEM, n = number of independent experiments
T1 sequence (Q15139 1-912): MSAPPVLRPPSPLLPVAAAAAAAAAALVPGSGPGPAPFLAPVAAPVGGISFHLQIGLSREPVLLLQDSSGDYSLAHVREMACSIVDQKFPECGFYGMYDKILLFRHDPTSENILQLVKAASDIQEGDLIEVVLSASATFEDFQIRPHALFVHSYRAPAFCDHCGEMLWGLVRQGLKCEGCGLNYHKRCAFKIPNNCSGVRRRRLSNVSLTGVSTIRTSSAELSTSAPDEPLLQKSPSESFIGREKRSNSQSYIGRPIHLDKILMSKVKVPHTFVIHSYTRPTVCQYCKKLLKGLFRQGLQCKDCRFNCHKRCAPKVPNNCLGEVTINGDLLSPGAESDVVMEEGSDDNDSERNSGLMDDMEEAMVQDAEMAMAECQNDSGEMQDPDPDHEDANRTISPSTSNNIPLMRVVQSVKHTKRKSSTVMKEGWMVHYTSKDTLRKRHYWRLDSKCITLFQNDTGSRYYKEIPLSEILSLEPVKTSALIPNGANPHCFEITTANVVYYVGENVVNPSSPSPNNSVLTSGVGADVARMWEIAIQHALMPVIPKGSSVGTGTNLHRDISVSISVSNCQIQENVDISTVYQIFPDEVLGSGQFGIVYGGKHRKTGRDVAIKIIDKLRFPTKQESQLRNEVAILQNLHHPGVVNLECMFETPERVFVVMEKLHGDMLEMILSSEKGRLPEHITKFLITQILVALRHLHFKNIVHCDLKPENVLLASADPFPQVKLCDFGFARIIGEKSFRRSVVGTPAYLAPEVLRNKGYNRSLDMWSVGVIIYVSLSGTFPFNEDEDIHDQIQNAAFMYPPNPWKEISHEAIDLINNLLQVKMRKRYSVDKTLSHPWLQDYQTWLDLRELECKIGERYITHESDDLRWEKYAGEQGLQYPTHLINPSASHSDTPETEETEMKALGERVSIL
Procedure: An automated, HTS formatted IMAP-based PKD Fluorescence Polarization (FP) assay was used to assess the specificity of the PKD analogs as previously described. […] Kinase reactions were incubated for 90 min at room temperature and stopped by the addition of IMAP binding reagent. Assay plates were then incubated for 2 h and IMAP-based FP data were captured on a Molecular Devices Spectra-Max M5 (Sunnyvale, CA, USA).

PKD1 [2] = target: T1, PKD1; test: In vitro radiometric PKD kinase activity assay; type: biochemical; set-up: purchased Biomol International; conditions: for IC50: read-out: IC50 Radiometric PKD1; for inhibitory activity against PKD (in words): preliminary biological data for kmg-NB5-13 and kmg-NB5-15
Procedure: In vitro radiometric PKD kinase assays were conducted as previously described. Briefly, 50 ng recombinant human PKD1 (Biomol International, Plymouth Meeting, PA, USA) was incubated at 30 °C for 10 min with a reaction mixture containing 2.5 μg syntide-2 (Sigma), 70 μM ATP, and 1 μCi γ-^32 P-ATP (PerkinElmer, Boston, MA, USA) in kinase buffer (50 mM Tris-HCl pH 7.5, […], and 10 mM […]). 25 μL of the reaction mixture was then spotted on Whatman P81 filter paper (Whatman Inc., Clifton, NJ, USA), and filter papers were washed three times with 0.5% phosphoric acid, dried, then counted using a Beckman LS6500 multi-purpose scintillation counter.

[3] = mean ± SEM, n = number of independent experiments

Structure (SMILES)	melting point	IC50 IMAP-FP PKD1 (PKD1 [1])	further results
COc1ccc2oc3c(c2c1)CCNC3=O [kb-NB123-32, 6-Methoxy-3,4-dihydrobenzoxolo[2,3-c]pyridin-1(2H)-one]	237 to 241 °C		IC50 (PKD1 [1]): > 100 µM
COc1ccc2oc3c(c2c1)CCCNC3=O [kb-NB77-56, 7-Methoxy-2,3,4,5-tetrahydro-[1]benzoxolo[2,3-c]azepin-1-one]	261 to 263 °C		IC50 (PKD1 [2]; [3]): 2.39 µM; IC50 (PKD1 [1]): 2.4 ± 0.14 µM
CC=Cc1c(O)ccc2oc3c(c12)CCCNC3=O [kb-NB96-30, 6-[(E)-2-(Prop-1-enyl) ]-7-hydroxy-2,3,4,5-tetrahydro-[1]benzoxolo[2,3-c]azepin-1-one]	> 300 °C		
Oc1ccc2oc3c(c2c1)CCCN1CCN=C31 [kb-NB165-15, 9-Hydroxy-3,5,6,7-tetrahydro-2H-benzoxolo[2,3-c]imidazo[1,2-a]azepine]	230 to 232 °C (dec.)		IC50 Radiometric PKD1 (PKD1 [2]; [3]): not inhibitory
O=C1NCCCc2c1oc1cc(Cl)c(O)c(Cl)c21 [kb-NB96-43, 6,8-Dichloro-7-hydroxy-2,3,4,5-tetrahydro-[1]benzoxolo[2,3-c]azepin-1-one]	298 to 301 °C	not inhibitory	
COc1ccc2oc3c(c2c1)CCN(C)C3=O [kb-NB123-37, 6-Methoxy-2-methyl-3,4-dihydrobenzoxolo[2,3-c]pyridin-1(2H)-one]	168 to 172 °C	not inhibitory	
CN1CCCc2c(oc3ccc(O)cc23)C1=O [kb-NB142-25, 7-Hydroxy-2-methyl-2,3,4,5-tetrahydro-[1]benzoxolo[2,3-c]azepin-1-one]	282 to 284 °C		IC50 (PKD1 [2]; [3]): 4 ± 1.1 µM
O=C1NCCC(=NOCc2ccccc2)c2c1oc1ccc(O)cc21 [kb-NB142-10, 5-(Benzyloxyimino)-7-hydroxy-2,3,4,5-tetrahydro-[1]benzoxolo[2,3-c]azepin-1-one]	103 to 110 °C	not inhibitory	
O=C(CCl)Nc1ccc2sc3c(c2c1)SCCNC3=O [mcf292-09, 3,4-Dihydro-9-(2-chloroacetamido)-[1]benzothieno[2,3-f]-1,4-thiazepin-5(2H)-one]	229 to 230 °C (dec.)		IC50 (PKD1 [2]; [3]): 1.5 µM
O=C1NCCCc2c1[nH]c1ccc(OCc3ccccc3)cc21 [kb-NB123-53, 3,4,5,10-Tetrahydro-7-benzyloxy-azepino[3,4-b]indol-1(2H)-one]		not inhibitory	
O=C1NCCSc2c1sc1ccc(OCc3ccccc3)cc21 [kb-NB123-66, 3,4-Dihydro-9-benzyloxy-[1]benzothieno[2,3-f]-1,4-thiazepin-5(2H)-one]	247 to 249 °C	not inhibitory	
COc1nc(OC)c2sc3c(c2n1)SCCNC3=O [kmg-NB5-13C, 2,4-Dimethoxy-7H,8H,9H-1,4-thiazepino[7′,6′-5,4]thiopheno[3,2-d]pyrimidin-6-one]	288 °C (dec.)		IC50 (PKD1 [2]; [3]): > 30 µM; inhibitory activity against PKD (in words) (PKD1 [2]): absence of inhibitory activity
C=CCOc1ccc2oc(=O)c3c(c2c1)CCCN3 [kb-NB77-83, 9-Allyloxy-1,2,3,4-tetrahydrochromeno[3,4-b]pyridin-5-one]	90 to 91 °C	not inhibitory	
O=C1NCCc2c1[nH]c1ccc(OCc3ccccc3)cc21 [kb-NB123-52, 2,3,4,9-Tetrahydro-6-benzyloxy-1H-pyrido[3,4-b]indol-1-one]	208 to 210 °C	not inhibitory	
CC(C)(C)[Si](C)(C)Oc1ccc2oc3c(c2c1)CCCNC3=O [kb-NB77-77, 7-(tert-Butyldimethylsilyloxy)-2,3,4,5-tetrahydro-[1]benzoxolo[2,3-c]azepin-1-one]	209 to 212 °C	not inhibitory	
CC(=O)Oc1ccc2oc3c(c2c1)CCCN(C(C)=O)C3=O [kb-NB123-45-1, 2-Acetyl-1-oxo-2,3,4,5-tetrahydro-[1]benzoxolo[2,3-c]azepin-7-yl acetate]	155 to 157 °C	not inhibitory	

Structure (SMILES)	melting point	IC50 IMAP-FP PKD1 (PKD1 [1])	further results
Cc1ccc(S(=O)(=O)NN=C2CCNC(=O)c3oc4ccc(O)cc4c32)cc1 [kb-NB142-11, 7-Hydroxy-5-[2-{(4-methylphenyl)sulfony}hydrazono]-2,3,4,5-tetrahydro-[1]benzoxolo[2,3-c]azepin-1-one]	220 to 224 °C		IC50 (PKD1 [1]): 38.2 ± 1.17 µM
COc1ccc2oc3c(c2c1)CCCN(C)C3=O [kb-NB96-04, 7-Methoxy-2-methyl-2,3,4,5-tetrahydro-[1]benzoxolo[2,3-c]azepin-1-one]	150 to 151 °C		IC50 (PKD1 [1]): > 100 µM
COc1nc(O)c2sc3c(c2n1)SCCNC3=O [kmg-NB5-15A, 4-Hydroxy-2-methoxy-7H,8H,9H-1,4-thiazepino[7′,6′-5,4]thiopheno[3,2-d]pyrimidin-6-one]	295 °C (dec.)		inhibitory activity against PKD (in words) (PKD1 [2]): absence of inhibitory activity
O=C1NCCSc2c1sc1ccc(N=C=S)cc21 [mcf292-05, 3,4-Dihydro-9-isothiocyanato-[1]benzothieno[2,3-f]-1,4-thiazepin-5(2H)-one]	253 to 253.3 °C		IC50 (PKD1 [2]; [3]): 2.77 µM
CC(=O)Oc1ccc2oc3c(c2c1)CCCNC3=O [kb-NB123-36, 7-Acetoxy-2,3,4,5-tetrahydro-[1]benzoxolo[2,3-c]azepin-1-one]	196 to 197 °C		IC50 (PKD1 [1]): 84.9 ± 3.21 µM
O=C1NCCSc2c1sc1cnc(O)nc21 (as salt: hydrochloride) [kmg-NB4-69A, 2-Hydroxy-7H,8H,9H-1,4-thiazepino[7′,6′-5,4]thiopheno[3,2-d]pyrimidin-6-one]	335.9 °C (dec.)		
CN1CCSc2c(sc3ccc(O)cc23)C1=O [kb-NB165-17, 2,3-Dihydro-4-methyl-9-hydroxy-[1]benzothieno[2,3-f]-1,4-thiazepin-5(2H)-one]	265 to 268 °C		IC50 (PKD1 [2]; [3]): 0.45 ± 0.05 µM
C=CCOc1ccc2oc3c(c2c1Cl)CCCNC3=O [kb-NB96-50, 7-Allyloxy-6-chloro-2,3,4,5-tetrahydro-[1]benzoxolo[2,3-c]azepin-1-one]	192 to 194 °C	not inhibitory	
COc1ccc2sc3c(c2c1)SCCN(C)C3=O [kb-NB165-16, 2,3-Dihydro-4-methyl-9-methoxy-[1]benzothieno[2,3-f]-1,4-thiazepin-5(2H)-one]	160 to 161 °C		IC50 (PKD1 [2]; [3]): 4.57 ± 0.78 µM
CC(=O)Nc1ccc2[nH]c3c(c2c1)CCCNC3=O [kb-NB123-94]	> 300 °C	not inhibitory	
CC(C)(C)[Si](C)(C)Oc1ccc2oc(=O)c3c(c2c1)CCCN3 [kb-NB77-78, 9-(tert-Butyldimethylsilyloxy)-1,2,3,4-tetrahydrochromeno[3,4-b]pyridin-5-one]	117 to 119 °C	not inhibitory	
CC(=O)Nc1ccc2[nH]c3c(c2c1)CCNC3=O [kb-NB123-93, N-(2,3,4,9-Tetrahydro-1-oxo-1H-pyrido[3,4-b]indol-6-yl)-acetamide]	> 300 °C	not inhibitory	
O=C1NCCCc2c1oc1cc(Cl)c(O)cc21 [kb-NB96-47-5, 8-Chloro-7-hydroxy-2,3,4,5-tetrahydro-[1]benzoxolo[2,3-c]azepin-1-one]	327 to 332 °C		
O=c1oc2ccc(O)c(Cl)c2c2c1NCCC2 [kb-NB96-47-1, 10-Chloro-9-hydroxy-1,2,3,4-tetrahydrochromeno[3,4-b]pyridin-5-one]	211 to 213 °C	not inhibitory	
O=C(OCc1ccccc1)N1CCCc2c1c(=O)oc1ccc(O)cc21 [kb-NB77-91, Benzyl 9-hydroxy-5-oxo-1,2,3,4-tetrahydrochromeno[3,4-b]pyridine-4-carboxylate]	235 to 237 °C	not inhibitory	

From paper PMC3261798, “Design, Synthesis, and Biological Evaluation of PKD Inhibitors” (Pharmaceutics, 2011)
